Assay results as given in patent US20260242759A1, “GQ/11 Protein Peptidomimetics” (Vrije Universiteit Brussel, priority 2022, published 2026).
Positions of bridges follow the written chain, without caps; N, C: chain ends. Non-standard residues stand in square brackets, D forms with d. Residues, ends and D or L forms follow the SMILES beside them. Triazole bridges read from a SMILES are 1,4-linked. Lys(N3) = [N-]=[N+]=NCCCC[C@H](N)C(=O)O; Cha = N[C@@H](CC1CCCCC1)C(=O)O; Pra = C#CC[C@H](N)C(=O)O

How the values were obtained:
[1] = biological target: T1, human ghrelin receptor (GHSR) (Homo sapiens, UniProt Q92847, C146S/C304S); assay: Bimane fluorescence assay on purified ghrelin receptor in nanodiscs; assay type: biochemical; conditions: bimane labeled GHSR, in presence of JMV1843
T1 construct: integrin α5 fragment (N); polyhistidine tag (C); made in house; host or cells: E. coli BL21(DE3)
Description: Another assay that can be used to analyse conformational changes associated with GPCR activation and/or to identify G protein peptidomimetics that are capable of stabilizing a GPCR in an active conformational state is the bimane fluorescence assay or bimane assay. This assay works through labelling of a cysteine residue in the lower part of the TM6 of a GPCR with a bimane-fluorophore (monobromobimane (MB)). Binding of an agonist to the GPCR causes a conformational change and outward movement of TM6 that places bimane in a more solved-exposed position, which will alter its maximum emission wavelength. In particular, increasing concentrations of agonist result in a concentration-dependent red-shift of the maximum emission wavelength (λmax) of the bimane-fluorophore probe. In the presence of a G protein or an active state stabilizing G protein peptidomimetic λmax may increase further. For example, a bimane labelled ghrelin receptor (such as a cysmin mutant (i.e. mutant with minimal cysteines) of human ghrelin receptor (also referred to herein as growth hormone secretagogue receptor (GHSR) (e.g. the mutant as described in Damian et al. (2021) wherein monobromobimane (MB) fluorescent probe is attached to Cys^255) and ghrelin receptor agonist JMV1843 may be used.
The bimane fluorescence assays on the ghrelin receptor were performed as described in Damian et al. (2021. Nat. Commun. 12:1-15). Briefly, E. coli bacteria (BL21(DE3)) were transformed with a vector encoding the human ghrelin receptor with an integrin α5 fragment at the N-terminus and a polyhistidine tag at the C-terminus. The receptors were then purified and reconstituted into lipidated nanodiscs. The monobromobimane labeling was performed by incubating the receptors, with a unique reactive cysteine at position 255, during 16 h in the dark at 4° C. and in the presence of 0.1 mM tris(2-carboxyethyl)phosphine (TCEO). The reaction was terminated with 5 mM L-cysteine and unreacted monobromobimane was removed using a Zeba™ Spin desalting column.
For the fluorescence assay, the labeled receptor was incubated during 2 h at 20° C. (0.2 μM final concentration), in the absence or presence of the full agonist JMV1843 (20 μM) and in the absence or presence of either the peptidomimetics at varying molar ratios or the purified Gαqβ1γ2 heterotrimer, at a 1:5 receptor-to-G protein molar ratio. Afterwards, the fluorescence experiments were performed on a Horiba Fluoromax-4 TCSP spectrofluorimeter. For each scan, the excitation wavelength (λexc) was set at 380 nm and emission was collected between 440 nm and 520 nm.
The bimane assay is used on GPCRs to detect conformational changes associated with receptor activation. This assay functions through the labelling of a cysteine, which is one of the least frequently occurring amino acids in proteins. Additionally, the majority of the extracellular cysteines form disulfide bonds, which, together with the transmembrane cysteines, are inert to thiol-reactive reagents. Additionally, some of the intracellular cysteines in the C-terminal tail may carry post-translational modifications which reduces the number of reactive cysteines in the receptor (Tian et al. 2017. Chem. Rev. 117:186-245). For GHSR, the remaining reactive cysteine residues C146 (ICL2) and C304 (extracellular end of TM7) were replaced by serines (cysmin mutant, i.e. mutant with minimal cysteines), to allow the monobromobimane (MB) fluorescent probe to be specifically attached to Cys255 in the lower part of TM6 (FIG. 5a) (Damian et al. 2021). In this assay, bimane is chosen because of its small size and sensitivity to the polarity of its environment (Yao et al. 2006. Nat Chem. Biol. 2:417-422). Binding of a ligand to the receptor, causes a conformational change and outward movement of TM6 that places bimane in a more solvent-exposed position, which alters its maximum emission wavelength. […]

[2] = Solubility in aqueous buffer; conditions: aqueous buffer for RLA
HEK293 1C8 cells = assay: MTT cytotoxicity assay; assay type: cell-based, human; conditions: varying concentrations up to 40 μM, 3 h 45 min
Protocol: Cells were washed two times with PBS and incubated with 3-(4,5-dimethylthiazol-2-yl)-2,5-diphenyltetrazolium bromide (MTT) during 3 h, at 37° C. Afterwards, cells were washed once with PBS and then incubated for 10 min with DMSO. Plates were analysed with a Tecan Spark 10 M microplate reader.
An MTT assay was used to assess the cytotoxicity of the non-fluorescent Gq/11 peptidomimetics of Example 5. An MTT assay is a colorimetric test that evaluates the cell metabolic activity and reflects the cell viability.

T1 sequence (Q92847 whole entry C146S/C304S, the tested form may be a part): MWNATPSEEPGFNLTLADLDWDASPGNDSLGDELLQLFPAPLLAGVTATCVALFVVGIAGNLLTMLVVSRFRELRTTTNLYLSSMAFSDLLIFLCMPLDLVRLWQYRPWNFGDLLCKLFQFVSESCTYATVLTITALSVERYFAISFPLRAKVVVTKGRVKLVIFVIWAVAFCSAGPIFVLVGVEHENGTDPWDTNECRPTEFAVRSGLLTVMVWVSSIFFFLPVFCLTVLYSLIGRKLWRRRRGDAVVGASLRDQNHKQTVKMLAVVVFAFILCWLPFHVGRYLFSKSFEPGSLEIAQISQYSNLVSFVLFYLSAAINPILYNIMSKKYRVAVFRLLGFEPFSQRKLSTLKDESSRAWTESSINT

Row | Compound | conformational change in the receptor [1] | solubility in aqueous buffer [2] | cytotoxicity / viability (HEK293 1C8 cells)
1 | CC[C@H](C)[C@H](NC(=O)[C@H](CC(=O)O)NC(=O)[C@H](CCCCN)NC(=O)[C@H](CS)NC(=O)[C@H](CC(=O)O)NC(=O)[C@H](CC(N)=O)NC(=O)[C@H](Cc1ccccc1)NC(C)=O)C(=O)N[C@H](C(=O)N[C@@H](CC(C)C)C(=O)N[C@@H](CCC(N)=O)C(=O)N[C@@H](CCSC)C(=O)N[C@@H](CC(N)=O)C(=O)N[C@@H](CC(C)C)C(=O)N[C@@H](CCCNC(=N)N)C(=O)N[C@@H](CCC(=O)O)C(=O)N[C@@H](Cc1ccc(O)cc1)C(=O)N[C@@H](CC(N)=O)C(=O)N[C@@H](CC1CCCCC1)C(=O)N[C@H](C(=O)O)C(C)C)[C@@H](C)CC [SBL-GQ-09] (Ac-FNDCKDIILQMNLREYN[Cha]V-OH) | not able to induce a conformational change | not soluble | –
2 | CC[C@H](C)[C@H](NC(=O)[C@@H]1CCCCn2cc(nn2)C[C@H](NC(=O)[C@H](C)NC(=O)[C@H](Cc2ccccc2)NC(=O)[C@H](CCCNC(=N)N)NC(=O)[C@H](CCCNC(=N)N)NC(=O)[C@H](CCCNC(=N)N)NC(=O)[C@@H](N)CCCNC(=N)N)C(=O)N[C@@H](C(C)C)C(=O)N[C@@H](CCCCN)C(=O)N[C@@H](CC(=O)O)C(=O)N1)C(=O)N[C@@H](CC(C)C)C(=O)N[C@@H](CCC(N)=O)C(=O)N[C@@H](CC(C)C)C(=O)N[C@@H](CC(N)=O)C(=O)N[C@@H](CC(C)C)C(=O)N[C@@H](CCCCN)C(=O)N[C@@H](CCC(=O)O)C(=O)N[C@@H](Cc1ccc(O)cc1)C(=O)N[C@@H](CC(N)=O)C(=O)N[C@@H](CC(C)C)C(=O)N[C@H](C(=O)O)C(C)C [SBL-GQ-14] (H-RRRRFA[Pra]VKD[Lys(N3)]ILQLNLKEYNLV-OH; triazole 7-11) | – | – | only a slight decrease in viability
3 | Ac-FNDCKDIILQMNLREYNLV-OH [SBL-GQ-07] | not able to induce a conformational change | not soluble | –
